In ChEMBL document CHEMBL5230099, “Free radical scavengers: An overview on heterocyclic advances and medicinal prospects” (Eur J Med Chem, 2020):
Converted amounts (≈) assume the structure as drawn.

Test: Antioxidant activity assessed as BHT equivalent of DPPH radical scavenging activity
Format: functional
Conditions: not given

SMILES | Activity [mg]
O=C(CCc1ccc(O)cc1)c1c(O)cc(O)cc1O | 1.27
O=C(CCc1ccc(O)cc1)c1c(O)cc(O[C@@H]2O[C@H](CO)[C@@H](O)[C@H](O)[C@H]2O)cc1O | 0.89

Test: Antioxidant activity assessed as DPPH radical scavenging activity
Format: functional
Conditions: not given

IC50 [µg/mL] | EC50 [µg/mL] | SMILES
0.4 | – | O=C(/C=C/c1ccc(O)c(O)c1)O[C@H](Cc1ccc(O)c(O)c1)C(=O)O [ROSMARINIC ACID]
0.8 | – | O=C(O)/C=C/c1ccc(O)c(O)c1 [CAFFEIC ACID]
81.12 | – | C[C@H]1O[C@H](O[C@H]2[C@H](O)[C@@H](O)[C@@H](O[C@H]3[C@H](O)[C@@H](O)C(O)O[C@@H]3CO)O[C@@H]2CO)[C@H](O)[C@@H](O)[C@@H]1N[C@H]1C=C(CO)[C@@H](O)[C@H](O)[C@H]1O (some centres not stated) [ACARBOSE]
14.43 | – | O=C(c1cc(O)c(O)c(O)c1)c1cc(O)c(Br)cc1O
– | 13.4 (≈ 37.8 µM) | O=C(/C=C/c1ccc(O)c(O)c1)O[C@@H]1C[C@@](O)(C(=O)O)C[C@@H](O)[C@@H]1O
128.55 | – | O=C(O)CN1C(=O)S/C(=C\c2cn(-c3ccccc3)nc2-c2ccccc2)C1=O
13.32 | – | Oc1cc(Cc2ccccc2)c(O)cc1Br
100 | – | COC(=O)c1c(O)c2ccccc2c2occc12 [FUROMOLLUGIN]
28 | – | COc1cc(/C=C/C(=O)CC(=O)/C=C/c2ccc(O)c(OC)c2)ccc1O [CURCUMIN]
19.24 | – | O=C(c1ccccc1)c1ccc(O)cc1Br
20 | – | CNc1cc(/C=C/c2cc(/C=C/c3ccc(OCC(N)=O)c(OC)c3)[nH]n2)ccc1OCC(N)=O
13.86 | – | Oc1ccc(Cc2cc(O)c(Br)cc2O)cc1
0.7 | – | COC(=O)c1c2c(c3ccccc3c1O)OC(C)(C)C=C2 [MOLLUGIN]
16.44 | – | O=C(c1ccc(O)c(O)c1)c1cc(O)c(Br)cc1O
127.18 | – | COc1ccc(-c2nn(-c3ccccc3)cc2/C=C2\SC(=O)N(Cc3ccccc3)C2=O)cc1
42.5 | – | CC1(C)C=Cc2c(C(=O)O)c(O)c3ccccc3c2O1
– | 13.8 (≈ 38.9 µM) | O=C(/C=C/c1ccc(O)c(O)c1)O[C@@H]1C[C@](O)(C(=O)O)C[C@@H](O)[C@H]1O [CHLOROGENIC ACID]
110.88 | – | O=C1S/C(=C\c2cn(-c3ccccc3)nc2-c2ccc(O)cc2)C(=O)N1Cc1ccccc1

Same assay, conditions: read-out: IC50

IC50 [nM] | SMILES
930 | O=C(O)C1CS[C@@H](c2cccc(Cl)c2Cl)N1 (some centres not stated)
1500 | COc1ccccc1[C@H]1NC(C(=O)O)CS1 (some centres not stated)
1540 | O=C(O)C1CS[C@@H](c2ccccc2)N1 (some centres not stated)
1520 | O=C(O)C1CS[C@@H](c2cccc(Cl)c2)N1 (some centres not stated)
830 | O=C(O)C1CS[C@@H](c2cccc(F)c2F)N1 (some centres not stated)
1220 | Cc1ccc([C@H]2NC(C(=O)O)CS2)cc1 (some centres not stated)

Test: Antioxidant activity by ORAC-FL method
Format: functional
Set-up: reference not given here
Conditions: not given

SMILES | Activity [µmol]
O=c1c2cccc(Cl)c2[se]n1-c1ccc2cccc(O)c2n1 | 0.9
O=c1c2c(C(F)(F)F)cccc2[se]n1-c1ccc2cccc(O)c2n1 | 0.2
O=c1c2cccc(C(F)(F)F)c2[se]n1-c1ccc2cccc(O)c2n1 | 0.3
O=c1c2c(F)cccc2[se]n1-c1ccc2cccc(O)c2n1 | 2.3
O=c1c2cccc(F)c2[se]n1-c1ccc2cccc(O)c2n1 | 3.6

Test: Antioxidant activity assessed as DPPH radical scavenging activity at 0.25 mg/ml incubated for 30 mins relative to control
Format: functional
Conditions: not given

SMILES | Activity [%]
COc1cc2c(Nc3ccc(O)cc3)c([N+](=O)[O-])cnc2cc1OCCCN1CCC(C)CC1 | 36

Test: Antioxidant activity assessed as DPPH radical scavenging activity at 1 mg/ml incubated for 30 mins relative to control
Format: functional
Conditions: not given

SMILES | Activity [%]
COc1cc2c(Nc3ccc(O)cc3)c([N+](=O)[O-])cnc2cc1OCCCN1CCC(C)CC1 | 84

Test: Antioxidant activity assessed as DPPH radical scavenging activity by measuring inhibition rate relative to control
Format: functional
Set-up: concentration or dose not given beside the values
Conditions: dose or concentration not given here

SMILES | inhibition [%]
CSc1nc2nc(N/N=C(\C)c3ccc([N+](=O)[O-])cc3)c3ccccc3n2n1 | 78
CSc1nc2nc(NN)c3ccccc3n2n1 | 85.9
C=CCNC(=S)NNc1nc2nc(SC)nn2c2ccccc12 | 91
CSc1nc2nc(NNC(=S)NC3CCCCC3)c3ccccc3n2n1 | 91.2
CSc1nc2nc(N/N=C/c3cccnc3)c3ccccc3n2n1 | 65

Test: Antioxidant activity assessed as DPPH radical scavenging activity by measuring inhibition rate at 60 ug/ml incubated for 50 mins in dark by UV-Vis spectrophotometric analysis relative to control
Format: functional
Conditions: dose 60.0 µg/ml

SMILES | inhibition [%]
COc1cc(-c2nc3ccc(N4CCOCC4)cc3[nH]2)ccc1O | 76.1
CN1CCN(c2ccc3nc(-c4ccc(O)c(O)c4)[nH]c3c2)CC1 | 76.8
Oc1ccc(-c2nc3ccc(N4CCOCC4)cc3[nH]2)cc1O | 77
COc1cc(-c2nc3ccc(N4CCN(C)CC4)cc3[nH]2)ccc1O | 63.6

Test: Antioxidant activity assessed as trolox equivalent of DPPH radical scavenging activity
Format: functional
Conditions: not given

SMILES | Activity [µmol/g]
O=C(N/N=C/c1ccc(O)c(O)c1O)c1cc2ccccc2[nH]1 | 12800
O=C(N/N=C/c1ccccc1O)c1cc2ccccc2[nH]1 | 8.71
O=C(N/N=C/c1cc(Br)ccc1O)c1cc2ccccc2[nH]1 | 14.2
O=C(N/N=C/c1c(O)cc(O)cc1O)c1cc2ccccc2[nH]1 | 4190
O=C(N/N=C/c1cc(O)ccc1O)c1cc2ccccc2[nH]1 | 9960
O=C(N/N=C/c1ccc(O)cc1O)c1cc2ccccc2[nH]1 | 2000
COc1cccc(/C=N/NC(=O)c2cc3ccccc3[nH]2)c1O | 38.7

Test: Antioxidant activity assessed as DPPH radical scavenging activity incubated for 30 mins under dark condition
Format: functional
Conditions: not given

IC50 [µg/mL] | SMILES
5.71 (≈ 8.59 µM) | CCn1c(-n2cc(/C=N/N=c3\[nH]c(-c4ccc(Br)cc4)cs3)c(-c3ccc(Cl)cc3)n2)nc2c1c(=O)n(C)c(=O)n2C
4.89 (≈ 6.64 µM) | CCn1c(-n2cc(/C=N/N=c3/scc(-c4ccc(Br)cc4)n3-c3ccccc3)c(-c3ccc(OC)cc3)n2)nc2c1c(=O)n(C)c(=O)n2C
10.24 (≈ 21.1 µM) | CCn1c(-n2cc(/C=N/NC(N)=S)c(-c3ccc(Cl)cc3)n2)nc2c1c(=O)n(C)c(=O)n2C

Test: Antioxidant activity assessed as trolox equivalent of ABTS-radical scavenging activity
Format: functional
Conditions: not given

SMILES | Activity [µmol/g]
COc1ccc2c(=O)cc(-c3ccc(N4CCN(c5nc6ccccc6s5)CC4)cc3)oc2c1 | 317
Cc1cc(N2CCN(c3cccc(C4CC(=O)c5ccccc5O4)c3)CC2)nc(-c2ccccc2O)n1 (configuration not stated) | 369
O=C1CC(c2cccc(N3CCN(c4nc5ccccc5s4)CC3)c2)Oc2ccccc21 (configuration not stated) | 464

Test: Antioxidant activity assessed as ABTS-radical scavenging activity measured upto 6 mins
Format: functional
Conditions: not given

SMILES | Activity [µg/mL]
O=C(/C=C/c1ccc(/C=C/C(=O)c2ccc3c(c2)OCO3)cc1)c1ccc2c(c1)OCO2 | 220
O=C(/C=C/c1ccc(/C=C/C(=O)c2ccc(Oc3ccccc3)cc2)cc1)c1ccc(Oc2ccccc2)cc1 | 174
